Test results as given in patent US12054509B2, “Antimicrobial compounds, compositions, and uses thereof” (Lakewood Amedex, Inc., priority 2017, dated 2024).

Key:
[1] = tested on: wild type P. aeruginosa (PAO1; K2732); assay: Bacterial cytological profiling at pH 4, 5.5, 7 (Example 8), P. aeruginosa; assay type: cell-based
Protocol: This bacterial cytological profiling (BCP) investigation uses methods and materials described previously by Nonejuie, P., Burkart, M., Poglianoa, K., Pogiano, J. (2013). Bacterial cytological profiling rapidly identifies the cellular pathways targeted by antibacterial molecules. Proc. Natl. Acad. Sci. U.S.A. 110(40):16169-16174. doi: 10.1073/pnas.1311066110.
For viable cell counts, cells are grown to OD600≈0.4 and diluted 1:1 into buffered or unbuffered media containing various compound concentrations. Samples are then collected and serially diluted (1:10) on a 96 well plate. Five microliters from each well are spotted on LB plates, incubated at 30° C., and viable cells are counted the next day.
Samples are collected at 10, 30, 120, and 240 min of exposure for viable cell count and imaging. For imaging, E. coli and S. aureus 200 μL of treated cells per time point are stained with 0.8 μg/mL FM4-64, 1.5 μg/mL DAPI, and 0.4 μM SYTOXGreen (Molecular Probes/Invitrogen). P. aeruginosa samples are stained 0.4 μM SYTOX Green, 28 μg/mL DAN, and 1 μg/mL FM 4-64. Cells are transferred to an agarose pad (20% LB, 1% agarose) for imaging.
For Nu-3 and Nu-8 stocks (at pH 4, 5.5 and 7), stock concentration is 500 mg/mL. For pH 4, the stocks are prepared by dissolving Nu-3 in 25 mM citrate buffer and Nu-8 in 350 mM citric acid. For pH 5.5, the stocks are prepared by dissolving Nu-3 in 25 mM citric-phosphate and Nu-8 in 25 mM critic. For pH 7, the stocks are prepared by dissolving Nu-3 and Nu-8 in 25 mM Sorensen phosphate buffer. 2×LB (lysogeny broth) solutions are prepared with 50 mM citrate buffer for pH 4, 50 mM citrate-phosphate buffer for pH 5.5, and 50 mM Sorensen phosphate buffer for pH 7.

E. coli (ATCC 25922) = assay: Time kill assay in saline at pH 3.5 (Example 27); assay type: cell-based; conditions: for Log10 CFU/mL: pH 3.5
Protocol: Log10 5 CFU of E. coli (ATCC 25922) were suspended in saline. Additionally, a sample of the saline only was prepared as a vehicle control (V.C.). Solutions of Nu-3, Nu-8, and Nu-10 at varying concentrations were adjusted to pH 3.5 with citric acid and added to the E. coli suspensions. At each time point (0, 1, 2.5, 5, 10, and 20 minutes), the treated bacterial suspensions were plated and incubated for 24 hrs, and each plate was read to determine the CFU count.
Tables 12-14 provide the time kill assay data for Nu-3 (Table 12), Nu-8 (Table 13) and Nu-10 (Table 14) against E. coli.

CCCCOP(=O)(O)OC[C@H]1O[C@@H](n2ccc(N)nc2=O)C[C@@H]1OP(=O)(O)OCCCC [Nu-8, sodium ((2R,3S,5R)-5-(4-amino-2-oxopyrimidin-1(2H)-yl)-3-((butoxyoxidophosphor-yl)oxy)tetrahydrofuran-2-yl)methyl butyl phosphate]
cell growth ([1]; pH 5.5 and 7, 112.5 mg/mL): reduction in cell growth | increase/change in cell permeability ([1]; pH 5.5 and 7, 112.5 mg/mL): < 20% | cell permeability ([1]; pH 7, 225 mg/mL, 10 min): ~37% | Log10 CFU/mL (E. coli (ATCC 25922); 2.5% solution, 0 min): 5.20 Log10 CFU/mL | Log10 CFU/mL (E. coli (ATCC 25922); 2.5% solution, 1 min): 4.93 Log10 CFU/mL | Log10 CFU/mL (E. coli (ATCC 25922); 2.5% solution, 2.5 min): 4.90 Log10 CFU/mL | Log10 CFU/mL (E. coli (ATCC 25922); 2.5% solution, 5 min): 4.93 Log10 CFU/mL | Log10 CFU/mL (E. coli (ATCC 25922); 2.5% solution, 10 min): 4.90 Log10 CFU/mL | Log10 CFU/mL (E. coli (ATCC 25922); 2.5% solution, 20 min): 4.93 Log10 CFU/mL | Log10 CFU/mL (E. coli (ATCC 25922); 5% solution, 0 min): 5.20 Log10 CFU/mL | Log10 CFU/mL (E. coli (ATCC 25922); 5% solution, 1 min): 4.88 Log10 CFU/mL | Log10 CFU/mL (E. coli (ATCC 25922); 5% solution, 2.5 min): 4.92 Log10 CFU/mL | Log10 CFU/mL (E. coli (ATCC 25922); 5% solution, 5 min): 4.90 Log10 CFU/mL | Log10 CFU/mL (E. coli (ATCC 25922); 5% solution, 10 min): 4.95 Log10 CFU/mL | Log10 CFU/mL (E. coli (ATCC 25922); 5% solution, 20 min): 4.90 Log10 CFU/mL | Log10 CFU/mL (E. coli (ATCC 25922); 10% solution, 0 min): 5.20 Log10 CFU/mL | Log10 CFU/mL (E. coli (ATCC 25922); 10% solution, 1 min): 4.86 Log10 CFU/mL | Log10 CFU/mL (E. coli (ATCC 25922); 10% solution, 2.5 min): 4.79 Log10 CFU/mL | Log10 CFU/mL (E. coli (ATCC 25922); 10% solution, 5 min): 4.76 Log10 CFU/mL | Log10 CFU/mL (E. coli (ATCC 25922); 10% solution, 10 min): 4.71 Log10 CFU/mL | Log10 CFU/mL (E. coli (ATCC 25922); 10% solution, 20 min): 4.75 Log10 CFU/mL | kill of the bacteria (E. coli (ATCC 25922); concentration of 10%, at 20 mins): modest kill
